According to US6869968B1, “2-(3H)-oxazolone derivatives and their use as COX-2 inhibitors” (Allmirall Prodesfarma S.A., priority 1996, dated 2005):

How the values were obtained:
[1] = tested on: adjuvant arthritis (Mycobacterium tuberculosis in paraffin oil, hind paw); experiment: Anti-inflammatory activity (adjuvant arthritis), hind paw volume; assay type: in vivo, Male Wistar rats; conditions: paw volume on day 21
Procedure: Anti-Inflammatory Activity (Adjuvant Arthritis)
Male Wistar rats weighing 175-200 g with free access to food and water were used. On day 0, the animals received an intraplantar injection of a suspension of Mycobacterium tuberculosis in paraffin oil (0.5 mg/rat) on the left hind paw. A group of 8 nonarthritic control rats were injected with paraffin oil alone. On days 11 and 14 after induction of arthritis, the volume of the hind paw of each rat was measured using a water plehysmograph. Animals whose paw volumes increased during that time were selected. Rats were distributed into groups of 8 having equal mean paw volumes and an approximately equal standard deviation.
Test compounds were administered p.o. once daily for 7 days (days 14-20). Nonarthritic and arthritic control rats received vehicle alone for 7 days. The hind paw volumes were measured 20 h after the last dose (on day 21). The body weight was determined every second day.
The results are expressed as the percentage of inhibition of inflammation (paw volume) for each treatment group, considering both the arthritic and nonarthritic vehicle controls. The ANOVA test was used for statistical studies.
(§1) For the in vivo assays all drugs were administered in vehicle (0.1% Tween 80+0.5% methylcellulose in distilled water) in a volume of 5 ml/kg.

Cyclooxygenase-2 (COX-2) = molecular target: T1, Cyclooxygenase-2 (COX-2) (Homo sapiens, UniProt P35354); experiment: Inhibition of cyclooxygenase-2 (COX-2) activity in HUV-EC-C cell line (prostaglandin E2 ELISA); assay type: cell-based; conditions: for IC50: PMA/TPA-induced HUV-EC-C cells, 50 μM arachidonic acid, mean of three independent experiments, read-out: COX-2 (μM), results expressed as IC50 values; for Ratio COX-1:COX-2: ratio of IC50 COX-1 (platelets) to IC50 COX-2 (HUV-EC-C)
T1 construct: Quiescent HUV-EC-C cells were treated with 50 nM TPA for 6 h at 37° C. to induce the COX-2 isoenzyme; endogenous in cells; host or cells: HUV-EC-C human endothelial cell line, passage 19-27, induced with 50 nM TPA/PMA
T1 sequence (P35354 18-604): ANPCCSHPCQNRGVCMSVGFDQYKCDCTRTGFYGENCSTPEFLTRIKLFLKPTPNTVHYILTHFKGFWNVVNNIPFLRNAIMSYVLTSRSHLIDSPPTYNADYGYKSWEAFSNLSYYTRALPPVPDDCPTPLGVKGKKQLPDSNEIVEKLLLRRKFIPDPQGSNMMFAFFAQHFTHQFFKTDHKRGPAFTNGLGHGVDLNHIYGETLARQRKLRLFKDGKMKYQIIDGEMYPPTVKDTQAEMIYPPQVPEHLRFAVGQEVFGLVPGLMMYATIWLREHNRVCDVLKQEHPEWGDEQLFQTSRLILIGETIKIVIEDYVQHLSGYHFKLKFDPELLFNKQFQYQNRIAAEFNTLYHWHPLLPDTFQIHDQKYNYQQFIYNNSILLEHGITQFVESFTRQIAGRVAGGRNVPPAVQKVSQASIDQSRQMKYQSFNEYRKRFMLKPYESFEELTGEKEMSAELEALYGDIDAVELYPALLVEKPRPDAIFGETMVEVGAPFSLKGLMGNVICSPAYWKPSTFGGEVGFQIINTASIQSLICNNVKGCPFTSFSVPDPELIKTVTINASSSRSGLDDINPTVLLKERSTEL
Procedure: (§2) For the whole-cell COX-1 and COX-2 assays, stock solutions (10^−3M) of the drugs were dissolved in 50% dimethylsulphoxide, and further dilutions were done with medium.
Inhibition of Cyclooxygenase-2 (COX-2) Activity in HUV-EC-C Cell Line
HUV-EC-C cells were grown on Ham's F12K medium containing 10% fetal bovine serum, 100 μg/ml heparin and 50 μg/ml Endothelial Cell Growth Supplement (ECGS). Experiments were performed with HUV-EC-C passage 19-27. Cells (2×10^4) were seeded onto 96-well plates and made quiescent by removing the growth factor for 48 h before the initiation of the experiments. Quiescent HUV-EC-C cells were treated with 50 nM TPA for 6 h at 37° C. to induce the COX-2 isoenzyme. The cultured medium was then changed and cells were incubated with drugs for 30 min. at 37° C. Arachidonic acid (50 μM) was then added, and the cells were incubated for a further 30 min. The production of prostaglandine E2 in response to arachidonic acid was measured in the supernatants using a solid-phase immunoassay (ELISA). The results are expressed as the mean of the IC50 values obtained from three independent experiments.
(§3) For the whole-cell COX-1 and COX-2 assays stock solutions (10^−3 M) of the drugs wer dissolved in 50% dimethylsulphoxide, and further dilutions were done with medium.

Cyclooxygenase-1 (COX-1) = molecular target: T2, Cyclooxygenase-1 (COX-1) (Homo sapiens, UniProt P23219); experiment: Inhibition of cyclooxygenase-1 (COX-1) activity in human platelets (thromboxane B2 ELISA); assay type: cell-based; conditions: 50 μM arachidonic acid, mean of three independent experiments, read-out: COX-1 (μM), results expressed as IC50 values
T2 construct: Platelets were isolated from peripheral human blood obtained from healthy donors; endogenous in cells; host or cells: human platelets from peripheral blood of healthy donors
Procedure: as §2
Inhibition of Cyclooxygenase-1 (COX-1) Activity in Human Platelets
The blood was anticoagulated with 2 mg/ml sodium EDTA and centrifuged at 180 g for 10 min. at room temperature to obtain platelet-rich plasma. The platelet-rich plasma was centrifuged at 2000 g for 20 min. at 4° C. to obtain a platelet pellet. Cells were washed twice with PBS without […] and resuspended to 5×10^7 cells with Hank's balanced salt solution (HBSS). Platelets (10^7) were preincubated with the drugs for 15 min. at 37° C. and incubations were continued for a further 15 min. in the presence of 50 μM arachidonic acid. The production of tromboxane B2 in response to arachidonic acid was measured in the supernatants using a solid-phase immunoassay (ELISA). The results are expressed as the mean of the IC50 values obtained from three independent experiments.
as §3

glandular stomach = experiment: Ulcerogenic activity (gastric lesion index); assay type: in vivo, Male Wistar rat; conditions: oral route, fasted rats, sacrificed 6 hours after dosage
Procedure: Animals: Male Wistar (Interfauna, U.K., Ltd.) weighing about 120-150 g were used. They were maintained on a 12:12 hour light-dark cycle (lights on at 7:00 a.m.) at room temperature (22±1° C.). The animals were fasted for 18 h prior to the experiment with free access to drinking water.
Procedure: Experiments were performed from 9 to 17 h. The compounds were administered by-the oral route and the animals were sacrificed 6 hours after drugs dosage. The stomach of each rat was removed, opened and gently washed. The macroscopic severity of the erosions was assessed using a parametric scale (Cosen and Mazure), evaluating the number and size of the ulcers in the glandular stomach. Thus, each stomach was classified with an index lesion and compared with the gastrolesivity induced by ketorolac 100 mg/kg p.o., used as a positive standard. The treatments were randomized in each experiment.
as §1

[2] = 1 mg/kg p.o. once daily for 7 days (days 14-20)

T2 sequence (P23219 24-599): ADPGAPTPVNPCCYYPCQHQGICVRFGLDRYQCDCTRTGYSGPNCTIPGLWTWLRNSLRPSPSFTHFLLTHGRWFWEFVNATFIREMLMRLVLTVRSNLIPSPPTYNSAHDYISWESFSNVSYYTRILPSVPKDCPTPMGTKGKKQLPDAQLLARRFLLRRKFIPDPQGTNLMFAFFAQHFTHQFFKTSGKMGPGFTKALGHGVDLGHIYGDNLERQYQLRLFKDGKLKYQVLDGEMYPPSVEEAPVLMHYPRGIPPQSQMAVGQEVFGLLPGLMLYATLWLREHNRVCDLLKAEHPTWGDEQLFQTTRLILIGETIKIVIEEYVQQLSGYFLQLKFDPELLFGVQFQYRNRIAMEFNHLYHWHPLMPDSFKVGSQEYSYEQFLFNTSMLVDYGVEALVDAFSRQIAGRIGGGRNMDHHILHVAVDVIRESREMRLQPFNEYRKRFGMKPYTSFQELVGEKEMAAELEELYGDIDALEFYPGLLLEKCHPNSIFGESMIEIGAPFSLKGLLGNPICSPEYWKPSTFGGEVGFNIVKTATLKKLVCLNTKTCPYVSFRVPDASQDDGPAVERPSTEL

| SMILES | % Inhibition (dose, mg/kg) [1, 2] | IC50 (Cyclooxygenase-2 (COX-2)) | Ratio COX-1:COX-2 (Cyclooxygenase-2 (COX-2)) | IC50 (Cyclooxygenase-1 (COX-1)) | UD50 (glandular stomach) | melting point | % Inhibition (dose, mg/kg) ([1]; 3 mg/kg p.o. once daily for 7 days (days 14-20)) |
| --- | --- | --- | --- | --- | --- | --- | --- |
| NS(=O)(=O)c1ccc(-c2coc(=O)n2-c2ccc(F)cc2)cc1 [Compound 18, 3-(4-fluorophenyl)-4-(4-aminosulfonylphenyl)-2-(3H)-oxazolone] | 63 (1) % | 0.53 µM | 2.8 | 1.5 µM | – | – | – |
| NS(=O)(=O)c1ccc(-c2coc(=O)n2-c2ccccc2F)cc1 [Compound 26, 3-(2-fluorophenyl)-4-(4-aminosulphonylphenyl)-2-(3H)-oxazolone] | 65 (1) % | 0.0096 µM | 2354 | 22.6 µM | >100 mg/kg | – | – |
| NS(=O)(=O)c1ccc(-c2coc(=O)n2-c2ccc(F)cc2F)cc1 [Compound 27, 3-(2,4-difluorophenyl)-4-(4-aminosulphonylphenyl)-2-(3H)-oxazolone] | 64 (1) % | 0.1 µM | 89 | 8.9 µM | >100 mg/kg | – | – |
| NS(=O)(=O)c1ccc(-c2coc(=O)n2-c2ccc(Cl)c(Cl)c2)cc1 [Compound 20, 3-(3,4-dichlorophenyl)-4-(4-aminosulphonylphenyl)-2-(3H)-oxazolone] | 67 (1) % | 0.06 µM | 58.3 | 3.5 µM | >100 mg/kg | – | – |
| COc1ccc2c(c1)c(CC(=O)O)c(C)n2C(=O)c1ccc(Cl)cc1 [Indomethacin, 1-(4-chlorobenzoyl)-5-methoxy-2-methylindole-3-acetic acid, reference compound] | 64 (1) % | – | – | – | 17 mg/kg | – | – |
| CS(=O)(=O)c1ccc(-c2coc(=O)n2-c2ccc(Br)cc2)cc1 [Compound 9, 3-(4-bromophenyl)-4-(4-methylsulfonylphenyl)-2-(3H)-oxazolone] | – | 0.11 µM | >909 | > 100 µM | – | 217 to 219 °C | – |
| CS(=O)(=O)c1ccc(-c2coc(=O)n2-c2ccc(F)cc2)cc1 [Compound 6, 3-(4-fluorophenyl)-4-(4-methylsulfonylphenyl)-2-(3H)-oxazolone] | – | 3.2 µM | 39.6 | 127 µM | >100 mg/kg | – | 52 (3) % |
